Patent US7400979B2, “Method of identifying inhibitors of Lck” (Abbott Laboratories, priority 2001, dated 2008)

Key:
[1] = molecular target: Lck protein tyrosine kinase (Homo sapiens, UniProt P06239); assay: Lck inhibition assay: ELISA for protein tyrosine kinases; assay type: biochemical; details: poly(Glu4Tyr) substrate, 5 μM ATP, 5% DMSO, result in words
Excerpt: (§1) The disclosed protocol was adapted for determining activity with respect to a specific protein tyrosine kinase, e.g. Lck. […] Adaptation of these protocols for determining the activity of a compound against other protein tyrosine kinases, for example Hck, are well within the abilities of those skilled in the art. […] The following procedure was used to assay the inhibitory effect of compounds of this invention on Lck protein tyrosine kinase activity:
Store on ice. […] Store on ice.

[2] = molecular target: Hck (Homo sapiens, UniProt P08631); assay: ELISA for protein tyrosine kinases adapted to Hck (inhibitor selectivity); assay type: biochemical; details: result in words; b177 defines selective as IC50 for Lck at least 10-fold lower than for the related protein
Chain of Hck (P08631 whole entry): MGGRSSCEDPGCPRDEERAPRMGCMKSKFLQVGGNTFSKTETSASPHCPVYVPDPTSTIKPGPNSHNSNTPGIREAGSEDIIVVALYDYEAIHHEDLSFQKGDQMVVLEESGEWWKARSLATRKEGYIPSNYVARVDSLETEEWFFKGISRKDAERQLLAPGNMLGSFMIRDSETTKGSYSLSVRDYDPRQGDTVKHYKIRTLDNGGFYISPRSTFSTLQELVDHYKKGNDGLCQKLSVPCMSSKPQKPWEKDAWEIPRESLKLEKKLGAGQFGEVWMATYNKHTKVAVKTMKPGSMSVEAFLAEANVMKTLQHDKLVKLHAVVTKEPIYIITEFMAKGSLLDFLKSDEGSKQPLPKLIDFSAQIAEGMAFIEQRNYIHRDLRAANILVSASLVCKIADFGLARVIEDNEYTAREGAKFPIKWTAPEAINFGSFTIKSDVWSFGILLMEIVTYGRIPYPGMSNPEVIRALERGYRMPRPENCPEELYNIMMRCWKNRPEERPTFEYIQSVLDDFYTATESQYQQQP
Excerpt: as §1, with “activity: […]” for “activity:”

Chain of Lck protein tyrosine kinase (P06239 whole entry): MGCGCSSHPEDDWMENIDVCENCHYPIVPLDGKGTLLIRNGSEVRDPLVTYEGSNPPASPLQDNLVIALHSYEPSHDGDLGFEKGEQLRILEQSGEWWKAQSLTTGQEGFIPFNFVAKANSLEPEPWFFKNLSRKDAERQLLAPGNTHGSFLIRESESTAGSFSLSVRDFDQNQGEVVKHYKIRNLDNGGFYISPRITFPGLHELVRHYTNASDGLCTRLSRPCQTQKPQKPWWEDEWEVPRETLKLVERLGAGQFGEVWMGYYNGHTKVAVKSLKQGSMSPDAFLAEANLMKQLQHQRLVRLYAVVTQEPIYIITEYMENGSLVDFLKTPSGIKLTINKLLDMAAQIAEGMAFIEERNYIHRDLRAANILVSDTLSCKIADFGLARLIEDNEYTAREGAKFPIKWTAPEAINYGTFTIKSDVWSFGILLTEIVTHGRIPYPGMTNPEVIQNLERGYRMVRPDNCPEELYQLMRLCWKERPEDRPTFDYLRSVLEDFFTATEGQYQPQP

Row | Lck inhibition (in vitro potency) [1] | selectivity for Lck over Hck [2] | SMILES
1 | potent inhibitor of Lck | inhibit Lck selectively over Hck | CNCCCN(C)C/C=C/c1[nH]c(=O)c2c(ccc3nc(Nc4c(Cl)cccc4Cl)n(C)c32)c1C [inhibitor 13, 2-(2,6-dichloroanilino)-1,6-dimethyl-7-((E)-3-{methyl[3-(methylamino)propyl]amino}-1-propenyl)-8,9-dihydro-1H-imidazo[4,5-h]isoquinolin-9-one]
2 | potent inhibitor of human Lck |  | CN1CCN([C@H]2CC[C@H](n3nc(-c4ccc(Nc5n[nH]c6ccccc56)cc4)c4c(N)ncnc43)CC2)CC1 [inhibitor 15, trans-3-[4-(1H-3-indazolylamino)phenyl]-1-[4-(4-methylpiperazino)cyclohexyl]-1H-pyrazolo[3,4-d]pyrimidin-4-amine]
